The text below walks through data of EP0595557A1, “New substituted azetidinones as anti-inflammatory and antidegenerative agents” (MERCK & CO. INC., priority 1992, dated 1994).

One test deals with T1, Human Polymorphonuclear Leukocyte Elastase (Homo sapiens, UniProt P08246).
T1 construct: Crude extract of human polymorphonuclear leukocytes (PMN) containing elastase activity; from tissue; host or cells: human polymorphonuclear leukocytes (crude extract)
T1 sequence (P08246 30-267): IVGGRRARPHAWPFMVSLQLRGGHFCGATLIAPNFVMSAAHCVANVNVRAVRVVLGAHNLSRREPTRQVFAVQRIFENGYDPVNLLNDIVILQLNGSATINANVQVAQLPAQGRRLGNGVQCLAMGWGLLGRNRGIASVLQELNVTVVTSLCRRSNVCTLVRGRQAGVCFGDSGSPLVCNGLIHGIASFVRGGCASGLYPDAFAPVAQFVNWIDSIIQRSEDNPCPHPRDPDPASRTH
Put plainly: Enzyme assay for inhibition of human polymorphonuclear leukocyte elastase via hydrolysis of Boc-AAPAN or Boc-AAPVN. The settings on record: pH 7.5, second order rate constant for inactivation of the enzyme, expressed to the nearest thousand, read-out: Kobs/[I]. The test is classed as biochemical. Put shortly:
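Crude human PMN extract as enzyme source, with 0.2 mM Boc-AAPAN in 0.05M TES buffer pH 7.5. Inhibitors in DMSO were added to substrate before the extract, and rate was followed as ΔOD/min at 410 mµ. Values are kobs/I, the second-order inactivation rate constant (per mole per second).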
For the molecule `CCC[C@@H](NC(=O)N1C(=O)C(CC)(CC)[C@@H]1Oc1ccc(C(=O)N(C)CCN(C)C)cc1)c1ccc(C(=O)O)cc1` [Compound 287], the kinact/KI was determined as 113000 M⁻¹ s⁻¹.
Still for that read-out and setting: the result for `CCC[C@@H](NC(=O)N1C(=O)C(CC)(CC)[C@@H]1Oc1ccc(C(=O)N(C)CCN(C)C)cc1)c1ccc(CO)cc1` [Compound 288] reads 854000 M⁻¹ s⁻¹; that for `CCC[C@@H](NC(=O)N1C(=O)C(CC)(CC)[C@@H]1Oc1ccc(CC(=O)N(C)CCN(C)C)cc1)c1ccc(OC)cc1` [Compound 289], 754000 M⁻¹ s⁻¹.
With `CCC[C@@H](NC(=O)N1C(=O)C(CC)(CC)[C@@H]1Oc1ccc(C(=O)N(C)CCN(C)C)cc1)c1ccc(OC)cc1` [Compound 290], the kinact/KI came to 1.01e+06 M⁻¹ s⁻¹.
As to `CCC[C@@H](NC(=O)N1C(=O)C(CC)(CC)[C@@H]1Oc1ccc(C(=O)N(C)CCN(C)C)cc1)c1cccc(OC)c1` [Compound 291], the kinact/KI was 1.75e+06 M⁻¹ s⁻¹.
On to `CCC[C@@H](NC(=O)N1C(=O)C(CC)(CC)[C@@H]1Oc1ccc(CC(=O)N2CCOCC2)cc1)c1ccc(C)c(COC(=O)N(CC)CC)c1` [Compound 292], for which the kinact/KI worked out at 807000 M⁻¹ s⁻¹.
The same measure, in the same setting: as for `CCC[C@@H](NC(=O)N1C(=O)C(CC)(CC)[C@@H]1Oc1ccc(CC(=O)N(CC)CC)cc1)c1ccc(C)c(C(=O)N(CCC)CCC)c1` [Compound 293], the figure is 457000 M⁻¹ s⁻¹; as for `CCC[C@@H](NC(=O)N1C(=O)C(CC)(CC)[C@@H]1Oc1ccc(CC(=O)N2CCOCC2)cc1)c1ccc(C)c(C(=O)N(CCC)CCC)c1` [Compound 294], 255000 M⁻¹ s⁻¹; as for `CCC[C@@H](NC(=O)N1C(=O)C(CC)(CC)[C@@H]1Oc1ccc(C(=O)N(C)CCN(C)C)cc1)c1ccc(C#N)cc1` [Compound 295], 846000 M⁻¹ s⁻¹.
With `CCC[C@@H](NC(=O)N1C(=O)C(CC)(CC)[C@@H]1Oc1ccc(C(=O)N(C)CCN(C)Cc2ccccc2)cc1)c1ccc(OCC)cc1` [Compound 296], the kinact/KI turned out to be 776000 M⁻¹ s⁻¹.
On the same count and under the same terms, as for `CCC[C@@H](NC(=O)N1C(=O)C(CC)(CC)[C@@H]1Oc1ccc(C(=O)N2CCN(C)CC2)cc1)c1ccc(OC)cc1` [Compound 298], the figure is 1.84e+06 M⁻¹ s⁻¹; as for `CCC[C@@H](NC(=O)N1C(=O)C(CC)(CC)[C@@H]1Oc1ccc(C(=O)N(C)CCN(C)C)cc1)c1ccc(Cl)cc1` [Compound 299], 1.48e+06 M⁻¹ s⁻¹.
The same measure, in the same setting: as for `CCC[C@@H](NC(=O)N1C(=O)C(CC)(CC)[C@@H]1Oc1ccc(C(=O)N(C)CCN(CC)CC)cc1)c1ccc(Cl)cc1` [Compound 300], the figure is 1.28e+06 M⁻¹ s⁻¹; as for `CCC[C@@H](NC(=O)N1C(=O)C(CC)(CC)[C@@H]1Oc1ccc(C(=O)N(C)CCN(C(C)C)C(C)C)cc1)c1ccc(Cl)cc1` [Compound 301], 1.5e+06 M⁻¹ s⁻¹.
Same read-out and setting: the result for `CCC[C@@H](NC(=O)N1C(=O)C(CC)(CC)[C@@H]1Oc1ccc(C(=O)N(C)CCN(C)Cc2ccccc2)cc1)c1ccc(Cl)cc1` [Compound 302] reads 1.46e+06 M⁻¹ s⁻¹.
`CCC[C@@H](NC(=O)N1C(=O)C(CC)(CC)[C@@H]1Oc1cc(C)c(C(=O)OCCN(CC)CC)c(C)c1)c1ccc(C)cc1` [Compound 305, 2-(diethylamino)ethyl [S-(R*,S*)]-4-[[3,3-diethyl-1-[[[1-(4-methylphenyl)butyl]amino]carbonyl]-4-oxo-2-azetidinyl]oxy]-2,6-dimethyl-benzoate]: the kinact/KI was determined as 749000 M⁻¹ s⁻¹.
Still for that read-out and setting: as for `CCC[C@@H](NC(=O)N1C(=O)C(CC)(CC)[C@@H]1Oc1cc(C)c(C(=O)OCCN(C(C)C)C(C)C)c(C)c1)c1ccc(C)cc1` [Compound 306, 2-[bis(1-methylethyl)amino]-ethyl [S-(R*,S*)]-4-[[3,3-diethyl-1-[[[1-(4-methylphenyl)butyl]amino]carbonyl]-4-oxo-2-azetidinyl]oxy]-2,6-dimethyl-benzoate], the figure is 612000 M⁻¹ s⁻¹; as for `CCC[C@@H](NC(=O)N1C(=O)C(CC)(CC)[C@@H]1Oc1cc(C)c(C(=O)N(C)CCN(C)C)c(C)c1)c1ccc(C)cc1` [Compound 307], 352000 M⁻¹ s⁻¹.
Regarding `CCC[C@@H](NC(=O)N1C(=O)C(CC)(CC)[C@@H]1Oc1cc(C)c(C(=O)N(C)CCN(CC)CC)c(C)c1)c1ccc(C)cc1` [Compound 308], the kinact/KI is 377000 M⁻¹ s⁻¹.
Same read-out and setting: as for `CCC[C@@H](NC(=O)N1C(=O)C(CC)(CC)[C@@H]1Oc1cc(C)c(C(=O)N(CC)CCN(C)C)c(C)c1)c1ccc(C)cc1` [Compound 309], the figure is 398000 M⁻¹ s⁻¹.
The same measure, in the same setting: the result for `CCC[C@@H](NC(=O)N1C(=O)C(CC)(CC)[C@@H]1Oc1ccc(C(=O)N(C)CCN(C)C)c(O)c1)c1ccc(C)cc1` [Compound 310] reads 838000 M⁻¹ s⁻¹.

Still in this test, the particulars now being: second order rate constant for inactivation of the enzyme, expressed to the nearest thousand; pH 7.5.
For “[S-(R*,S*)]-2-[4-[[(4-Methyl)piperazin-1-yl]carbonyl] phenoxy]-((3,3-diethyl-N-[1-(methylphenyl)butyl]-4-oxo-1-azetidinecarboxamide [Compound 242]”, the “Kobs/[I]” value is 1,700,000 per mole per second.
